Test results published in patent publication US9771378B2 (Denali Therapeutics, Inc., priority 2014, dated 2017).

What follows are compounds tested on Aβ42 (human neuroglioma H4 cells expressing human wild type APP751) (assay: In vitro cell screening assay with sandwich ELISA quantification of Aβ42 peptide). Conditions: H4 cells stably expressing human wild type APP751; Pro293 chemically defined medium; compounds 0.003-10 μM; incubated overnight (16-18 h); supernatant Aβ42 by sandwich ELISA; normalized to DMSO and DAPT; read-out: Aβ42 H4 Prot Fre IC50.
Format: cell-based
Outline: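 Aβ42 in supernatants was quantified by sandwich ELISA with C-terminal-specific capture and 4G8-HRP detection, absorbance at 450 nm. Stable APP751-expressing human H4 cells received compound at 0.003-10 μM (0.33% DMSO) overnight (16-18 h). IC50 was derived from percent-of-DMSO-control data by nonlinear variable-slope fit.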

SMILES	IC50
COc1cc(Nc2ncc3c(n2)N(C)C2(CC2)CO3)cnc1-c1cnn(C)c1 [Example 268]	2780 nM
COc1cc(Nc2ncc3c(n2)N(C)C2(CC2)CO3)ccc1-c1cnn(C)c1 [Example 269]	703 nM
COc1cc(Nc2ncc3c(n2)N(C)C(C)(C)CO3)cnc1-c1cnn(C)c1 [Example 270]	> 3000 nM
COc1cc(Nc2ncc3c(n2)N(C)C2(COC2)CO3)ccc1-n1cnc(C)c1 [Example 271]	364 nM
COc1cc(Nc2ncc3c(n2)N(C)C2(COC2)CO3)cnc1-n1cnc(C)c1 [Example 272]	537 nM
COc1cc(Nc2ncc3c(n2)N(C)C2(CCOCC2)CO3)ccc1-n1cnc(C)c1 [Example 273]	111 nM
COc1cc(Nc2ncc3c(n2)N(C)C2(CCOCC2)CO3)cnc1-n1cnc(C)c1 [Example 274]	295 nM
COc1cc(Nc2ncc3c(n2)N(C)C2(CO3)CC(F)(F)C2)ccc1-n1cnc(C)c1 [Example 276]	56 nM
COc1cc(Nc2ncc3c(n2)N(C)C2(CO3)CC(F)(F)C2)ccc1-n1cnc(Cl)c1 [Example 277]	97 nM
COc1cc(Nc2ncc3c(n2)N(C)C2(CO3)CC(F)(F)C2)cnc1-n1cnc(C)c1 [Example 278]	92 nM
Cc1cn(-c2ccc(Nc3ncc4c(n3)N(C)C3(CCCC3)CO4)cc2F)cn1 [Example 279]	254 nM
COc1cc(Nc2ncc3c(n2)N2CCC[C@@]2(C)CO3)ccc1-n1cnc(C)c1 [Example 291, (S)-N-(3-methoxy-4-(4-methyl-1H-imidazol-1-yl)phenyl)-6a-methyl-6a, 7,8,9-tetrahydro-6H-pyrimido [5,4-b] pyrrolo [1,2-d] [1, 4] oxazin-2-amine]	131 nM
Cc1cn(-c2ccc(Nc3ncc4c(n3)N3CCC[C@@]3(C)CO4)cc2F)cn1 [Example 292, (S)-N-(3-fluoro-4-(4-methyl-1H-imidazol-1-yl)phenyl)-6a-methyl-6a, 7,8,9-tetrahydro-6H-pyrimido [5,4-b] pyrrolo [1,2-d] [1, 4] oxazin-2-amine]	438 nM
Cc1cn(-c2ccc(Nc3ncc4c(n3)N3CCC[C@]3(C)CO4)cc2F)cn1 [Example 293, (R)-N-(3-fluoro-4-(4-methyl-1H-imidazol-1-yl)phenyl)-6a-methyl-6a, 7,8,9-tetrahydro-6H-pyrimido [5,4-b] pyrrolo [1,2-d] [1, 4] oxazin-2-amine]	276 nM
COc1cc(Nc2ncc3c(n2)N2CCC[C@]2(C)CO3)ccc1-n1cnc(C)c1 [Example 294, (R)-N-(3-methoxy-4-(4-methyl-1H-imidazol-1-yl)phenyl)-6a-methyl-6a, 7,8,9-tetrahydro-6H-pyrimido [5,4-b] pyrrolo [1,2-d] [1, 4] oxazin-2-amine]	80 nM
COc1cc(Nc2ncc3c(n2)N2CCOC[C@H]2CO3)ccc1-n1cnc(C)c1 [Example 295]	496 nM
COc1cc(Nc2ncc3c(n2)N2CCOC[C@@H]2CO3)ccc1-n1cnc(C)c1 [Example 296]	759 nM
COc1cc(Nc2ncc3c(n2)N2CC(F)(F)C[C@H]2CO3)ccc1-n1cnc(C)c1 [Example 297, (S)-8,8-difluoro-N-(3-methoxy-4-(4-methyl-1H-imidazol-1-yl)phenyl)-6a, 7,8,9-tetrahydro-6H-pyrimido [5,4-b] pyrrolo [1,2-d] [1, 4] oxazin-2-amine]	99 nM
COc1cc(Nc2ncc3c(n2)N2CC(F)(F)C[C@H]2CO3)cnc1-n1cnc(C)c1 [Example 298, (S)-8,8-difluoro-N-(5-methoxy-6-(4-methyl-1H-imidazol-1-yl)pyridin-3-yl)-6a, 7,8,9-tetrahydro-6H-pyrimido [5,4-b] pyrrolo [1,2-d] [1, 4] oxazin-2-amine]	177 nM
Cc1cn(-c2ccc(Nc3ncc4c(n3)N3CCOC[C@H]3CO4)cc2F)cn1 [Example 299]	> 3000 nM
Cc1cn(-c2ccc(Nc3ncc4c(n3)N3CCOC[C@@H]3CO4)cc2F)cn1 [Example 300]	781 nM
COc1cc(Nc2ncc3c(n2)N2CC(F)(F)C[C@@H]2CO3)ccc1-n1cnc(C)c1 [Example 303, (R)-8,8-difluoro-N-(3-methoxy-4-(4-methyl-1H-imidazol-1-yl)phenyl)-6a, 7,8,9-tetrahydro-6H-pyrimido [5,4-b] pyrrolo [1,2-d] [1, 4] oxazin-2-amine]	131 nM
